How the values were obtained:
[1] = test system: LNCaP-C4-2 prostate tumor cells
Description: Five 8-week-old male C.B-Igh-1b/IcrTac-Prkdcscid mice (Taconic) were injected subcutaneously in the neck region with 4×10^6 LNCaP-C4-2 prostate tumor cells. […] The first PET measurement was immediately followed by a CT scan during which the animal was left in the same position. Both tracers were injected i.v. through the lateral tail vein ([^18F]1-10: 21-32 MBq; [^68Ga]HBED-CC: 19-33 MBq, on two consecutive days). Emission data collection started 60 min after injection and lasted 45 min. Image reconstruction was performed using Fourier rebinning and an ordered subset expectation maximization (3D-OSEM) procedure, yielding images with voxel sizes of 0.78×0.78×0.80 mm. Image analysis was performed with VINCI 4.0 (MPI for Metabolism Research, Cologne, Germany). Tracer uptake in the tumor as well as liver, kidney, and background was determined using volumes of interest (VOIs) covering the respective structure. Significant differences were assessed using two-way repeated measures ANOVA with factors “structure” and “tracer”, followed by Holm-Sidak post hoc comparison. Tumor sizes were measured by drawing accurate tumor VOIs in the CT images, and extracting VOI volume. Tracer uptake was correlated tumor size using the Pearson correlation test.

[2] = test system: PSMA positive prostate tumor xenografts; conditions: PSMA positive prostate tumor xenografts in mice; clear delineation; cited from earlier work
[3] = Storage and solution stability of iodonium iodide 22; type: physicochemical

SMILES | tumor tracer uptake ([1]; PET 60 min after i.v. injection, 45 min emission, LNCaP-C4-2 xenograft mice, tumor VOI) | Signal-to-noise ratio (tumor versus background) ([1]; PET 60 min after i.v. injection, LNCaP-C4-2 xenograft mice) | uptake in the kidney ([1]; PET 60 min after i.v. injection, kidney VOI) | liver uptake ([1]; PET 60 min after i.v. injection, liver VOI) | imaging characteristics compared to [^68Ga]HBED-CC (50) ([1]; PSMA^+ PCa mice model) | kidney uptake compared to [^68Ga]HBED-CC (50) ([1]; PSMA^+ PCa mice model) | tumor to background ratio [2] | stability in solution ([3]; in solution, especially at elevated temperatures, in DMF or DMSO already at ambient temperature) | storage stability ([3]; stored at 4° C. under argon)
O=C(O)CCC(NC(=O)NC(CCCCNC(=O)c1ccc([18F])nc1)C(=O)O)C(=O)O (stereo not drawn) [[^18F]1-10, 2-(3-{1-carboxy-5-[(6-[^18F]fluoro-pyridine-3-carbonyl)-amino]-pentyl}-ureido)-pentanedioic acid] | 1.4±1.7 % ID/g | 5.9±4.2 | 3.0±1.9 % ID/g | 1.1±0.5 % ID/g | nearly identical | much lower | excellent | – | –
COc1ccc([I+]c2ccc(C(=O)Oc3c(F)c(F)cc(F)c3F)cc2)cc1.[I-] [Compound 22, (4-Methoxyphenyl) [4-(2,3,5,6-tetrafluorophenoxycarbonyl)phenyl]iodonium iodide] | – | – | – | – | – | – | – | unstable | ≥ 4 months

Source: patent US10112974B2, “Method for the production of 18F-labeled active esters and their application exemplified by the preparation of a PSMA-specific PET-tracer” (Max-Planck-Gesellschaft zur Foerderung der Wissenschaften …, priority 2014, dated 2018)
